Patent EP4463162B1, “CONNEXIN 43 FOR USE IN TREATING BRCA1/2-MUTATED CANCER” (Fundación Profesor Novoa Santos, priority 2022, dated 2023)

Experiments:
γH2AX (p-Ser139) = assay: Western blot and immunofluorescence against γH2AX; assay type: cell-based, human; conditions: Cx43_HCC1937, 50/100 µM olaparib, 96 h, vs basal condition and same treatments in EV_HCC1937
Experimental: (§1) 2 000-10 000 cells were plated on glass coverslips (Thermo Fisher Scientific) previously coated with poly-D-lysine hydrobromide (Sigma-Aldrich) and cultured until they were approximately 80 % confluent. They were washed with PBS, fixed with 4 % paraformaldehyde (PFA, Sigma-Aldrich) in PBS for 15 min at room temperature and rinsed twice with PBS. Next, cells were incubated with 0.1 M glycine (Sigma-Aldrich) in distilled water to quench PFA for 10 min at room temperature, and then their membranes were permeabilized with 0.2 % Triton X-100 (Sigma-Aldrich) in PBS for 10 min at room temperature. After two 5 min PBS washes, potential nonspecific antibody binding sites were blocked with 1 % bovine serum albumin (BSA; Sigma-Aldrich) diluted in PBST (PBS+0.1 % Tween 20; Sigma-Aldrich) for 30 min at room temperature. Cells were incubated overnight at 4 °C in the dark with primary antibody (see references in Table 3) diluted in 1 % BSA in PBST. […]
Protein extracts were mixed with loading buffer, which consisted of 10 % (v/v) β-mercaptoethanol (Sigma-Aldrich), 10 % SDS, 50 % (v/v) glycerol, 200 mM Tris-HCl pH 6.8 and 0.1 % bromophenol blue (Sigma-Aldrich). […] Ponceau staining and western blot images were analysed and their band intensities quantitated with Image J software.

RAD51 and 53BP1 = RAD51 and 53BP1 immunofluorescence; assay type: cell-based, human; conditions: olaparib 100 µM, 96 h
Experimental: as §1, with “PBST. The next day, cells were rinsed three times in PBS for 10 min each, and then incubated 1 h at room temperature in the dark with secondary antibody (see references in Table 3) diluted in 1 % BSA in PBST. After that, they were washed three times with PBS for 5 min each, and their nuclei were stained with 1 µg/mL Hoechst (Invitrogen, Thermo Fisher Scientific) diluted in PBS for 10 min.” for “PBST.”

Cx43_HCC1937 cells = assay: 48 h olaparib dose-response curve, cell viability; assay type: cell-based; conditions: Homo sapiens
HCC1937 cells = assay: Proliferation assay (Cell Counting Kit-8); assay type: cell-based, human; conditions: Cx43_HCC1937 compared to EV_HCC1937; 100 and 200 µM olaparib, over 96 h, all concentrations and time points
Experimental: Proliferation of tumour cell lines was evaluated using the Cell Counting Kit-8 (Dojindo Molecular Technologies). This kit comprises WST-8, a highly water-soluble tetrazolium salt, which upon reduction by cellular dehydrogenases of viable cells, gives rise to a yellow formazan dye that is solube in cell culture media and can be quantitated. Briefly, similar number of cells (1 000-5 000) were plated in 96-well plates (Corning) and left to grow for the desired time period under different treatment conditions. Then, medium was renewed (100 µL volume/well) and 10 µL of CCK-8 reagent were added to each well. Plates were incubated in the dark for 3 h at 37 °C, and absorbance was measured at 450 nm in a NanoQuant Infinite 200 plate reader (Tecan).
Cell viability was either relativized to untreated controls for each cell line at each time point, in order to account for the already reduced proliferation of Cx43-restituted cells (top graph) or reported as raw absorbance value (bottom graph).
To further characterize its involvement in BRCA1/2 mutated cancer, Cx43 was restituted by plasmid transfection in BRCA1 mutated TNBC and ovarian carcinoma cell lines, HCC1937 and SNU251, respectively. […]

p21 = assay: Western blot against senescence marker p21; assay type: cell-based, human; conditions: Cx43_HCC1937, 96 h, 100 µM olaparib
Experimental: Protein extracts were mixed with loading buffer, which consisted of 10 % (v/v) β-mercaptoethanol (Sigma-Aldrich), 10 % SDS, 50 % (v/v) glycerol, 200 mM Tris-HCl pH 6.8 and 0.1 % bromophenol blue (Sigma-Aldrich). They were boiled at 95 °C for 8 min and 20-30 µg protein were loaded into 8, 10 or 15 % acrylamide/bis-acrylamide self-made gels, depending on the molecular weight of the target protein/s to investigate. Gels were run at 80 V for approximately 2 h using a Mini-PROTEAN Tetra electrophoresis system (BioRad), and then transferred to methanol-preactivated polyvinylidene fluoride (PVDF) membranes (Millipore) at 100 V and 4 °C for 1-1.5 h with a Mini Trans-Blot Electrophoretic Transfer Cell (BioRad). Afterwards, membranes with the transferred proteins were stained with ATX Ponceau S red staining solution (Sigma-Aldrich) for 10 min at room temperature, photographed in an Amersham Imager 600 (GE Healthcare) and unstained with distilled water. They were then blocked for 1 h at room temperature with 5 % skim milk (Sigma-Aldrich) diluted in TBST buffer (Tris-buffered saline TBS composed of 20 mM Tris and 150 mM NaCl, supplemented with 0.05 % (v/v) Tween-20, Sigma-Aldrich) with shaking. […] Ponceau staining and western blot images were analysed and their band intensities quantitated with Image J software. […]

Question: How did the “γH2AX (p-Ser139)” value (γH2AX (p-Ser139)) turn out when O=C(c1cc(Cc2n[nH]c(=O)c3ccccc23)ccc1F)N1CCN(C(=O)C2CC2)CC1 [Olaparib, olaparib] was run?
Answer: The value was “significant γH2AX increase”.

Question: And the 53BP1 foci (RAD51 and 53BP1; EV and Cx43_HCC1937)?
Answer: The 53BP1 foci was “seemed to rise upon olaparib treatment in both cell lines alike”.

Question: What about the RAD51 foci (RAD51 and 53BP1; EV vs Cx43_HCC1937) of the same compound?
Answer: The RAD51 foci was “increased just in EV_HCC1937 cells”.

Question: What about the IC50 (Cx43_HCC1937 cells) of the same compound?
Answer: Its IC50 is 350 µM.

Question: And the “cell viability (proliferation assay)” value (HCC1937 cells)?
Answer: The value was “robust and significant decrease in cell viability”.

Question: And the “senescence marker p21” value (p21)?
Answer: The value was “significantly increased”.
